In ChEMBL document CHEMBL3585300, “Inhibition of Cathepsin K: A Novel and Promising Treatment for Osteoporosis” (ACS Med Chem Lett, 2015) one finds IP data, which are given here for 4 compounds.

For test [1], the target named is T1, Cathepsin K (Homo sapiens) (UniProt P43235).
T1 sequence (whole entry): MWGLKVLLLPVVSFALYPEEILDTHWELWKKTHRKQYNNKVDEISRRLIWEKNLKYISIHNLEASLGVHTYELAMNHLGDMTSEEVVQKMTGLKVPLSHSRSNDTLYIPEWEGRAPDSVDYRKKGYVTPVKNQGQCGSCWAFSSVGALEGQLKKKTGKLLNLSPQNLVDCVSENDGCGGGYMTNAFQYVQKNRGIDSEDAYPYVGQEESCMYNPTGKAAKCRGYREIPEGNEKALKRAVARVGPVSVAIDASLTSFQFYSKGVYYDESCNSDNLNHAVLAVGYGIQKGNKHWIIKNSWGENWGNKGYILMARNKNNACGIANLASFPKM
In words: Inhibition of human cathepsin K incubated for 15 mins using Z-Leu-Arg-AMC substrate by spectrofluorometry.

In test [2] the target is T2, Cathepsin F (Homo sapiens) (UniProt Q9UBX1).
T2 sequence (whole entry): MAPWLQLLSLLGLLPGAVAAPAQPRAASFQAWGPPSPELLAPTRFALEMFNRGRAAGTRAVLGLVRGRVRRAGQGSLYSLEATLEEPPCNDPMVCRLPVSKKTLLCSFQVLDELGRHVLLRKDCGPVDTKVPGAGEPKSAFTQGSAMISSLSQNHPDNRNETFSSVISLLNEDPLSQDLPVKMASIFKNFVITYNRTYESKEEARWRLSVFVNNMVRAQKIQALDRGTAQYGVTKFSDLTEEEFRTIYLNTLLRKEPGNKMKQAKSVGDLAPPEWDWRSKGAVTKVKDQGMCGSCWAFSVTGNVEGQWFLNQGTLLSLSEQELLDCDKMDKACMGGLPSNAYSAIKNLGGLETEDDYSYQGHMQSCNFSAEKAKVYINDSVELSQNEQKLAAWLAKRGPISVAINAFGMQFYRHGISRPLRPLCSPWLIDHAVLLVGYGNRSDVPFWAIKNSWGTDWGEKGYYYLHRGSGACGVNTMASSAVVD
In words: Inhibition of human cathepsin F incubated for 15 mins using Z-Phe-Arg-AMC substrate by spectrofluorometry.

SMILES strings stand for the structures.

With `C[C@@H](C#N)NC(=O)[C@@H]1C[C@@H](F)CC[C@H]1c1nc(C2(C(F)(F)F)CC2)sc1-c1ccc(N2CCS(=O)(=O)CC2)cc1`, the IP stood at 2.8 nM in test [1] and 3140 nM in test [2].

Take `N#CC1(NC(=O)[C@@H]2CCCC[C@H]2c2nc(C3CC(F)(F)C3)sc2-c2ccc(N3CCS(=O)(=O)CC3)cc2)CC1`: the results for the IP in test [1] and in test [2] were 5.8 nM and 1000 nM, respectively.

Take `N#CC1(NC(=O)[C@@H]2CCCC[C@H]2c2nc(-c3cccc(C4CCOCC4)c3)sc2-c2ccc(N3CCS(=O)(=O)CC3)cc2)CC1`: the IP in test [1] was 1.7 nM; in test [2], 3330 nM.

For `CC(C)(C)c1nc([C@@H]2CCCC[C@H]2C(=O)NCC#N)c(-c2ccc(N3CCS(=O)(=O)CC3)cc2)s1`, the IP in test [1] stood at 0.7 nM; in test [2] it was 851 nM.
